Reference: publication PMC6934184, “Selective DNA-PKcs inhibition extends the therapeutic index of localized radiotherapy and chemotherapy” (The Journal of Clinical Investigation, 2019)

Target: T1, PAK3 (Homo sapiens, UniProt O75914)
T1 construct: purchased Thermo Fisher Scientific (Life Technologies) SelectScreen
Assay: SelectScreen Z'LYTE
Type: biochemical
How it was run: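 Percent values come from Thermo SelectScreen profiling of NU5455, combining activity and binding assays. CSF1R was run in Z'LYTE format at Km app ATP, and CAMK1 in Adapta format with ATP listed at 10.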

T1 sequence (O75914 whole entry): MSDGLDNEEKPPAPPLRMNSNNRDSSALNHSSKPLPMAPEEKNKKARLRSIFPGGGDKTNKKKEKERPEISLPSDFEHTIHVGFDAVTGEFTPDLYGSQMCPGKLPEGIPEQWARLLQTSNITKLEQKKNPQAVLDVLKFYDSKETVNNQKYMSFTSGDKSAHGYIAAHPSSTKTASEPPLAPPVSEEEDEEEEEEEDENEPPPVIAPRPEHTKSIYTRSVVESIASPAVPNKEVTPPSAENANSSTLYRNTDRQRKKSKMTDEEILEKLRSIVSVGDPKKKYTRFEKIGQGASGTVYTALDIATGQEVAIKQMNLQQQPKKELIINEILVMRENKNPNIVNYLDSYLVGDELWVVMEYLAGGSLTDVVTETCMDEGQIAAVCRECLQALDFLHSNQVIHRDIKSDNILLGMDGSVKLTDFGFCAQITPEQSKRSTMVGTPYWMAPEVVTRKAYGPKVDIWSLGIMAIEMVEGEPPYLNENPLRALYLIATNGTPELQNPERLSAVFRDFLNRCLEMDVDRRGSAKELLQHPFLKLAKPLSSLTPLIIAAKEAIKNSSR

CN(C(=O)CN1CCOCC1)c1ccc2sc3c(-c4cccc5c(=O)cc(N6CC7CCC(C6)O7)oc45)cccc3c2c1 [NU5455]
inhibition at 1 µM: -42.6%
